Assay results as given in patent US12180207B2 (ARRAY BIOPHARMA INC., priority 2018, dated 2024).

Legend:
[1] = target: HEK-293 cells transfected with dox-inducible human wild type FGFR1 (Homo sapiens (Human), UniProt P11362); assay: FGFR1 pERK cell assay; assay type: cell-based; conditions: HEK-293 dox-inducible FGFR1, 1 hour compound, 100 ng/ml FGF-acidic; maximum concentration 5 μM
Method in brief: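 In HEK-293 cells with dox-induced human wild-type FGFR1, compounds (1:3 dilutions, top 5 μM final) were applied 1 h at 37°C before 5 min stimulation with 100 ng/ml FGF-acidic. Phospho-ERK1/2 measured by MSD sandwich immunoassay; IC50 from 4-parameter fit of POC versus vehicle and control compound.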

[2] = target: recombinant human FGFR2 cytoplasmic domain (amino acids 403-822) (Homo sapiens (Human), UniProt P21802); assay: FGFR2 enzyme activity assay (LanthaScreen TR-FRET); assay type: biochemical; conditions: 15 μM ATP, 20 min incubation at 22° C., average of multiple determinations if made, read-out: FGFR2 Enz FRET IC50
Chain of recombinant human FGFR2 cytoplasmic domain (amino acids 403-822) (P21802 402-821): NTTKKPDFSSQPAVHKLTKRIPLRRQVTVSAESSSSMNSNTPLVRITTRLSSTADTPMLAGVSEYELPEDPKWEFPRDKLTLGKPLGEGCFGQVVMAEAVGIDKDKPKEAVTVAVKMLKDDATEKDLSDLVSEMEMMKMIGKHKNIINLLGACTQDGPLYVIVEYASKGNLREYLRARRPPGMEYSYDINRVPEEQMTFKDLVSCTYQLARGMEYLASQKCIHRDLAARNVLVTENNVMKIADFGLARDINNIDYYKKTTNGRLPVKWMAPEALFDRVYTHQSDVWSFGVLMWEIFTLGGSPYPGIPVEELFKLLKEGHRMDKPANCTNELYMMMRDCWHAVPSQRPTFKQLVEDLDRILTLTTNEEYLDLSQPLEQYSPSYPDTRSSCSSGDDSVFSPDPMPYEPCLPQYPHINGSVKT
Method in brief: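 Substrate phosphorylation was read by TR-FRET using Eu-PY20 antibody (60 min, 22 °C) after a 20 min, 22 °C reaction. The reaction used 15 μM ATP, 100 nM fluorescent poly-GT peptide and His-tagged FGFR2 403-822 ([…]) at pH 7.5 with 2% DMSO.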

[3] = target: T1, HEK-293 cells transfected with dox-inducible human wild type FGFR3 (Homo sapiens (Human), UniProt P22607); assay: FGFR3 pERK cell assay; assay type: cell-based; conditions: HEK-293 dox-inducible FGFR3, 1 hour compound, 100 ng/ml FGF-acidic; maximum concentration 5 μM
T1 sequence (P22607 23-806): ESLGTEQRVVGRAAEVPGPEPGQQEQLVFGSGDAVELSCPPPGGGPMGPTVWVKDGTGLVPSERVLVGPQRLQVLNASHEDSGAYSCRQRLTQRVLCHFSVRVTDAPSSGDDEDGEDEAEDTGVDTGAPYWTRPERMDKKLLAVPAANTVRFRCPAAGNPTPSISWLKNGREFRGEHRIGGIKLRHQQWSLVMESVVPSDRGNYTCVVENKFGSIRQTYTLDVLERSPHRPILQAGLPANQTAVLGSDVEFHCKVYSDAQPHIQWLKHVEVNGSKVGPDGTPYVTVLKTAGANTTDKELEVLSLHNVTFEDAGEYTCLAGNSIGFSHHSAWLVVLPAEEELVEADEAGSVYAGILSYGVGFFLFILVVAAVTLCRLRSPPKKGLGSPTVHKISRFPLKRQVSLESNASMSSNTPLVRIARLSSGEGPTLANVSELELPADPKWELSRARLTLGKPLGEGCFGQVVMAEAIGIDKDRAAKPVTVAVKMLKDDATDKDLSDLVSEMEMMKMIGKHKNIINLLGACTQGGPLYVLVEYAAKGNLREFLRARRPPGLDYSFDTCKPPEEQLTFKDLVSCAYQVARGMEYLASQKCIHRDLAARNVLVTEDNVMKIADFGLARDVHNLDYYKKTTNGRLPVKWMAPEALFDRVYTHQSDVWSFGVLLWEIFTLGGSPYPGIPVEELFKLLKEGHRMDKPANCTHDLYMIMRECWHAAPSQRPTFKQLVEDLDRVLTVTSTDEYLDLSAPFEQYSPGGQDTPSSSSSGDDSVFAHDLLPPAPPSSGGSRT
Method in brief: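 Doxycycline-induced cells preincubated 1 h at 37 °C with compound (1:3 dilutions, top 5 μM final), then stimulated 5 min with 100 ng/ml FGF-acidic. Lysate phospho-ERK1/2 measured by MSD sandwich assay; IC50 at 50 POC from 4-parameter fit, normalised to no-compound and control-compound wells.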

[4] = target: T1, HEK-293 cells transfected with dox-inducible human wild type FGFR3; assay: FGFR3 pFGFR cell assay (ELISA); assay type: cell-based; conditions: HEK-293 dox-inducible FGFR3, 1 hour compound, 100 ng/ml FGF-acidic
Method in brief: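 Doxycycline-induced (1 μg/ml) HEK-293 cells expressing wild-type human FGFR3, treated 1 h with compound (1:3 series, top final 5 μM), then stimulated 5 min with 100 ng/ml FGF-acidic. Phospho-FGFR3 measured by ELISA (total FGFR3 capture, phosphotyrosine detection, OD 450 nm); IC50 from 4-parameter fit of POC values.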

dephosphorylated FGFR2 = dephosphorylated FGFR2 (Homo sapiens (Human), UniProt P21802); assay: FGFR enzyme binding assay (HTRF tracer displacement), FGFR2; conditions: 5 nM dephosphorylated FGFR2, average of multiple determinations if made
Chain of dephosphorylated FGFR2 (P21802 22-821): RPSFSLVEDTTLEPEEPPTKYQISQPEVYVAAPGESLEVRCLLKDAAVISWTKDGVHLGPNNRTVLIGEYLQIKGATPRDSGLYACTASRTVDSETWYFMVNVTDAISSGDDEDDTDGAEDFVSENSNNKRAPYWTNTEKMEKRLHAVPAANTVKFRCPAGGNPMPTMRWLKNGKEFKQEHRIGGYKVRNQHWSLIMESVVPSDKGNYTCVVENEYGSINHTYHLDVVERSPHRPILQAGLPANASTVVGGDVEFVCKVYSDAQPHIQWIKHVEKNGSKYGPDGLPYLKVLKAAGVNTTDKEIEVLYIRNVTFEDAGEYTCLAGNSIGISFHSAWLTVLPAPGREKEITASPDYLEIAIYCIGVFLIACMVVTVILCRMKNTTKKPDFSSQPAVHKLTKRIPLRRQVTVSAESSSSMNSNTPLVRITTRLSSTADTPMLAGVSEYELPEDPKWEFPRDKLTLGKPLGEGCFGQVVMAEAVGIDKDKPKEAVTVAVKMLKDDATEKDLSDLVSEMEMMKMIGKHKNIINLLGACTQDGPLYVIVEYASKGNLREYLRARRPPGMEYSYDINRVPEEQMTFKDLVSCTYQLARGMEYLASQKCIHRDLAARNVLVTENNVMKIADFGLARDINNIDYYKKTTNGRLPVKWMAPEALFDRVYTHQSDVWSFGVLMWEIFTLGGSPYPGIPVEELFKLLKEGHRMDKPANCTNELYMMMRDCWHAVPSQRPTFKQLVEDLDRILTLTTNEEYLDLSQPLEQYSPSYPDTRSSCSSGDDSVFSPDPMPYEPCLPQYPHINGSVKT
Method in brief: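 Kinase and tracer were incubated with compound for 60 minutes at 22° C. Tracer displacement was then measured by HTRF, and results were expressed as POC with 1 μM control inhibitor defining full displacement.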

Chain of HEK-293 cells transfected with dox-inducible human wild type FGFR1 (P11362 22-822): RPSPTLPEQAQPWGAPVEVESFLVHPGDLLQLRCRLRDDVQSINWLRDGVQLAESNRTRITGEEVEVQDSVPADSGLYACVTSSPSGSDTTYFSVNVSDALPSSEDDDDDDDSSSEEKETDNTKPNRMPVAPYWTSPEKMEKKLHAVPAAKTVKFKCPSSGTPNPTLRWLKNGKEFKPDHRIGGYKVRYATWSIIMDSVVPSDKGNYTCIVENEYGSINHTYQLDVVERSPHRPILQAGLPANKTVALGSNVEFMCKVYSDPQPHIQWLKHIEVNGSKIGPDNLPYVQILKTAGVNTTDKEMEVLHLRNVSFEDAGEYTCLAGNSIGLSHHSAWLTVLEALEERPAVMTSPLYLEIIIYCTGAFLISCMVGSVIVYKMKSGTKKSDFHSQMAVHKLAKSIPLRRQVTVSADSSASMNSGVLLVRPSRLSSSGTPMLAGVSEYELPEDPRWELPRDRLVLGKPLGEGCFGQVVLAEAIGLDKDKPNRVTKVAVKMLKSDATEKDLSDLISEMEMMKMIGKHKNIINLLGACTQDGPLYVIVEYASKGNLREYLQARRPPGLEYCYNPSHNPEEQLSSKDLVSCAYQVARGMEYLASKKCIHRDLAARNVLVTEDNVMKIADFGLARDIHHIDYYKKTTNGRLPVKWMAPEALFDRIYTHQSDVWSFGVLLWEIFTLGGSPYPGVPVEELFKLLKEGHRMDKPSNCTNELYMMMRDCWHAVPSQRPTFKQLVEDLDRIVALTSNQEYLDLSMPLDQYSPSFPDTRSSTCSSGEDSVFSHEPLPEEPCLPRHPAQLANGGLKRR

Compound | IC50 [1] [nM] | IC50 [2] [nM] | IC50 [3] [nM] | IC50 [4] [nM] | IC50 (dephosphorylated FGFR2) [nM]
C=CC(=O)N1CCC(C#N)(C(=O)N2CCC(n3cc(-c4cc(OC)c5c(C#N)cnn5c4)cn3)CC2)C1 (centres unmarked) [Example 31, 6-(1-(1-(1-acryloyl-3-cyanopyrrolidine-3-carbonyl)piperidin-4-yl)-1H-pyrazol-4-yl)-4-methoxypyrazolo[1,5-a]pyridine-3-carbonitrile] | 247 | 2 | 26 | 15 | 
C=CC(=O)N1CC(F)(C(=O)N2CCC(n3cc(-c4cc(OC)c5c(C#N)cnn5c4)cn3)CC2)C1 [Example 37, 6-(1-(1-(1-acryloyl-3-fluoroazetidine-3-carbonyl)piperidin-4-yl)-1H-pyrazol-4-yl)-4-methoxypyrazolo[1,5-a]pyridine-3-carbonitrile] | 59 | 7 | 8 | 12 | 44
C=CC(=O)N1CC(C#N)(C(=O)N2CCC(n3cc(-c4cc(OC)c5c(C#N)cnn5c4)cn3)CC2)C1 [Example 39, 6-(1-(1-(1-acryloyl-3-cyanoazetidine-3-carbonyl)piperidin-4-yl)-1H-pyrazol-4-yl)-4-methoxypyrazolo[1,5-a]pyridine-3-carbonitrile] | 52 | 5 | 8 | 101 | 
C=CC(=O)N1CC(OC)(C(=O)N2CCC(n3cc(-c4cc(OC)c5c(C#N)cnn5c4)cn3)CC2)C1 [Example 41, 6-(1-(1-(1-acryloyl-3-methoxyazetidine-3-carbonyl)piperidin-4-yl)-1H-pyrazol-4-yl)-4-methoxypyrazolo[1,5-a]pyridine-3-carbonitrile] | 91 | 1 | 12 | 10 | 
C=CC(=O)N1CC(C(=O)N2CCC(n3cc(-c4cc(OC)c5c(C#N)cnn5c4)cn3)CC2)C1C (centres unmarked) [Example 42, 6-(1-(1-(1-acryloyl-2-methylazetidine-3-carbonyl)piperidin-4-yl)-1H-pyrazol-4-yl)-4-methoxypyrazolo[1,5-a]pyridine-3-carbonitrile] | 631 | 6 | 77 | 31 | 
C=CC(=O)N1CC(C(=O)N2CCC(n3cc(-c4cc(OC)c5c(C#N)cnn5c4)cn3)CC2)C1(C)C (centres unmarked) [Example 43, 6-(1-(1-(1-acryloyl-2,2-dimethylazetidine-3-carbonyl)piperidin-4-yl)-1H-pyrazol-4-yl)-4-methoxypyrazolo[1,5-a]pyridine-3-carbonitrile] | 428 | 3 | 90 | 64 | 
C=CC(=O)N1CC(C(=O)N2C3CCC2CN(c2ccc(-c4cc(OC)c5c(C#N)cnn5c4)cn2)C3)C1 [Example 50, 6-(6-(8-(1-acryloylazetidine-3-carbonyl)-3,8-diazabicyclo[3.2.1]octan-3-yl)pyridin-3-yl)-4-methoxypyrazolo[1,5-a]pyridine-3-carbonitrile] | 103 | 4 | 25 |  | 14
C=CC(=O)N1CC(C(=O)N2CC3CCC(C2)N3c2ccc(-c3cc(OC)c4c(C#N)cnn4c3)cn2)C1 [Example 51, 6-(6-(3-(1-acryloylazetidine-3-carbonyl)-3,8-diazabicyclo[3.2.1]octan-8-yl)pyridin-3-yl)-4-methoxypyrazolo[1,5-a]pyridine-3-carbonitrile] | 198 | 9 | 61 |  | 38
C=CC(=O)N1CC(C(=O)N2C3CC2CN(c2ccc(-c4cc(OC)c5c(C#N)cnn5c4)cn2)C3)C1 [Example 52, 6-(6-(6-(1-acryloylazetidine-3-carbonyl)-3,6-diazabicyclo[3.1.1]heptan-3-yl)pyridin-3-yl)-4-methoxypyrazolo[1,5-a]pyridine-3-carbonitrile] | 759 | 14 | 262 |  | 32
C=CC(=O)Nc1ccc(C(=O)N2CC[C@@H](n3cc(-c4cc(OC)c5c(C#N)cnn5c4)cn3)C2)cc1 [Example 55, (R)-N-(4-(3-(4-(3-cyano-4-methoxypyrazolo[1,5-a]pyridin-6-yl)-1H-pyrazol-1-yl)pyrrolidine-1-carbonyl)phenyl)acrylamide] | 381 | 5 | 71 | 64 | 
C=CC(=O)N1CCC(C(=O)N2CCC(n3ncc(-c4cc(OC)c5c(C#N)cnn5c4)c3C)CC2)CC1 [Example 82, 6-(1-(1-(1-acryloylpiperidine-4-carbonyl)piperidin-4-yl)-5-methyl-1H-pyrazol-4-yl)-4-methoxypyrazolo[1,5-a]pyridine-3-carbonitrile] | 3360 | 9 | 853 | 814 | 
C=CC(=O)N1CC(C)(C(=O)N2CCC(n3ncc(-c4cc(OC)c5c(C#N)cnn5c4)c3C)CC2)C1 [Example 86, 6-(1-(1-(1-acryloyl-3-methylazetidine-3-carbonyl)piperidin-4-yl)-5-methyl-1H-pyrazol-4-yl)-4-methoxypyrazolo[1,5-a]pyridine-3-carbonitrile] | 2370 | 96 | 159 |  | 12
C=CC(=O)N1CC(C(=O)N2CCC(n3ncc(-c4cc(OC)c5c(C#N)cnn5c4)c3C)CC2)C1(C)C (centres unmarked) [Example 87, 6-(1-(1-(1-acryloyl-2,2-dimethylazetidine-3-carbonyl)piperidin-4-yl)-5-methyl-1H-pyrazol-4-yl)-4-methoxypyrazolo[1,5-a]pyridine-3-carbonitrile] | 2350 | 18 | 520 |  | 51
C=CC(=O)N1CC(OC)(C(=O)N2CCC(n3ncc(-c4cc(OC)c5c(C#N)cnn5c4)c3C)CC2)C1 [Example 88, 6-(1-(1-(1-acryloyl-3-methoxyazetidine-3-carbonyl)piperidin-4-yl)-5-methyl-1H-pyrazol-4-yl)-4-methoxypyrazolo[1,5-a]pyridine-3-carbonitrile] | 605 | 69 | 34 |  | 12
C=CC(=O)N1CC(CN2CCC(n3ncc(-c4cc(OC)c5c(C#N)cnn5c4)c3C)CC2)C1 [Example 89, 6-(1-(1-((1-acryloylazetidin-3-yl)methyl)piperidin-4-yl)-5-methyl-1H-pyrazol-4-yl)-4-methoxypyrazolo[1,5-a]pyridine-3-carbonitrile] | 541 | 50 | 22 |  | 53
C=CC(=O)N1CC(C)(CN2CCC(n3ncc(-c4cc(OC)c5c(C#N)cnn5c4)c3C)CC2)C1 [Example 90, 6-(1-(1-((1-acryloyl-3-methylazetidin-3-yl)methyl)piperidin-4-yl)-5-methyl-1H-pyrazol-4-yl)-4-methoxypyrazolo[1,5-a]pyridine-3-carbonitrile] | 2240 | 56 | 43 |  | 54
C=CC(=O)N1CC(CN2CCC(n3ncc(-c4cc(OC)c5c(C#N)cnn5c4)c3C)CC2)(OC)C1 [Example 91, 6-(1-(1-((1-acryloyl-3-methoxyazetidin-3-yl)methyl)piperidin-4-yl)-5-methyl-1H-pyrazol-4-yl)-4-methoxypyrazolo[1,5-a]pyridine-3-carbonitrile] | 341 | 99 | 15 |  | 19
C=CC(=O)N1CC(C(=O)N2CCC(n3cc(-c4cc(OC)c5c(C#N)cnn5c4)c(C)n3)CC2)C1 [Example 94, 6-(1-(1-(1-acryloylazetidine-3-carbonyl)piperidin-4-yl)-3-methyl-1H-pyrazol-4-yl)-4-methoxypyrazolo[1,5-a]pyridine-3-carbonitrile] | 4500 | 22 | 450 | 336 | 
C=CS(=O)(=O)Nc1cccc(C(=O)N2CCC(n3cc(-c4cc(OC)c5c(C#N)cnn5c4)cn3)CC2)c1 [Example 188, N-(3-(4-(4-(3-cyano-4-methoxypyrazolo[1,5-a]pyridin-6-yl)-1H-pyrazol-1-yl)piperidine-1-carbonyl)phenyl)eth-enesulfonamide] | 134 | 5 | 19 | 24 | 
